Several values for one entry are separate records, joined by “and”; a condition that tells them apart may be missing. Identical values can stand only once.
Legend:
Glucocorticoid receptor [1] = target: T1, Glucocorticoid receptor (Homo sapiens, UniProt P04150)
T1 sequence (P04150 whole entry): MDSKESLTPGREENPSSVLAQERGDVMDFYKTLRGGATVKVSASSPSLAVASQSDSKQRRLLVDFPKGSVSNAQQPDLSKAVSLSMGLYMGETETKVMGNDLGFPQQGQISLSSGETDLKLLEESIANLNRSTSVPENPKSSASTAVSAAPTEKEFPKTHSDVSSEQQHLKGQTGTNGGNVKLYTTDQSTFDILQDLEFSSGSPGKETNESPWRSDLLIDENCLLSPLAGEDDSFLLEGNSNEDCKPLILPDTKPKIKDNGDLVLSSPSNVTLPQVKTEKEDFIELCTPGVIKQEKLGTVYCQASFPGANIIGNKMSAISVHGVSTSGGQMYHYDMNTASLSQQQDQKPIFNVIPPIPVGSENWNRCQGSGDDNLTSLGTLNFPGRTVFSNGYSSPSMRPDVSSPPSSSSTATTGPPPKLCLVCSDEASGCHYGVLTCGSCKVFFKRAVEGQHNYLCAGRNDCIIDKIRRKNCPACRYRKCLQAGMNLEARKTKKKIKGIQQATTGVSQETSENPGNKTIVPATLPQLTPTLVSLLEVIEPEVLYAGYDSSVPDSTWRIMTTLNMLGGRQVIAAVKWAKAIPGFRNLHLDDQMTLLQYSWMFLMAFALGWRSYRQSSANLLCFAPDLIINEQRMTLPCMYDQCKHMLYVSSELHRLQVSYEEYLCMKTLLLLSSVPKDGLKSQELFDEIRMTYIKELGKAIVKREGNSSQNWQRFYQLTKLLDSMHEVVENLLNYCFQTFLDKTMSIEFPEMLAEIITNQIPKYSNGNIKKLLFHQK
Description: (§1) Binding affinity to glucocorticoid receptor

Glucocorticoid receptor [2] = target: T1, Glucocorticoid receptor; experiment: Agonist activity at glucocorticoid receptor in human A549 cells by MMTV transactivation assay; type: functional, cell-based
Glucocorticoid receptor [3] = target: T1, Glucocorticoid receptor; remark: listed apart in the source
Description: Agonist activity at glucocorticoid receptor in human A549 cells by NF-kappaB transrepression assay

Glucocorticoid receptor [4] = target: T1, Glucocorticoid receptor; remark: listed apart in the source
Glucocorticoid receptor [5] = target: T1, Glucocorticoid receptor; remark: listed apart in the source
Description: as §1

Progesterone receptor = target: T2, Progesterone receptor (Homo sapiens, UniProt P06401); experiment: Binding affinity to progesterone receptor
T2 sequence (P06401 whole entry): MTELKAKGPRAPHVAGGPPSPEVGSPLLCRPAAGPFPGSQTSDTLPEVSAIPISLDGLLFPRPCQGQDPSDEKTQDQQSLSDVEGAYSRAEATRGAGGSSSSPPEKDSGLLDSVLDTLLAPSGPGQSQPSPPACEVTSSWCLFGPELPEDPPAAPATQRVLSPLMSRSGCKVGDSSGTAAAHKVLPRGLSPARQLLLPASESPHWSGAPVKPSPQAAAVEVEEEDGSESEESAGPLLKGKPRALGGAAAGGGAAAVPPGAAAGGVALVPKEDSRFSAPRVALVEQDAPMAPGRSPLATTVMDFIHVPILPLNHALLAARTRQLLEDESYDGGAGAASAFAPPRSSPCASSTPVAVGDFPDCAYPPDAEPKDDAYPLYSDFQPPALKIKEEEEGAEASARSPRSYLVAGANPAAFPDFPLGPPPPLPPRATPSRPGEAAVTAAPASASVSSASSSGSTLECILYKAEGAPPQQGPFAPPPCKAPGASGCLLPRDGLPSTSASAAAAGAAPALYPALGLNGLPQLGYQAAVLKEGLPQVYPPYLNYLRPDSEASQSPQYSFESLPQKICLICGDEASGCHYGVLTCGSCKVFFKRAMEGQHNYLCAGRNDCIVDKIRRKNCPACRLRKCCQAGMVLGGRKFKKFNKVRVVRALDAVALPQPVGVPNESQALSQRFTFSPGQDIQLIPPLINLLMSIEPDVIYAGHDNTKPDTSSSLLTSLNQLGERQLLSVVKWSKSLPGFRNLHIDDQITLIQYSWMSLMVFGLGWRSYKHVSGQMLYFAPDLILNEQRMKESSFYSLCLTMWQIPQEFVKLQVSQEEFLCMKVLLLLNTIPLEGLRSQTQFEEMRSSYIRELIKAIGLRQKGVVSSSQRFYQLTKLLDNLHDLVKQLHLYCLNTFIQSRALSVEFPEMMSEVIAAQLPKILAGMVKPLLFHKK

Androgen receptor = target: T3, Androgen receptor (Homo sapiens, UniProt P10275); experiment: Binding affinity to androgen receptor
T3 sequence (P10275 whole entry): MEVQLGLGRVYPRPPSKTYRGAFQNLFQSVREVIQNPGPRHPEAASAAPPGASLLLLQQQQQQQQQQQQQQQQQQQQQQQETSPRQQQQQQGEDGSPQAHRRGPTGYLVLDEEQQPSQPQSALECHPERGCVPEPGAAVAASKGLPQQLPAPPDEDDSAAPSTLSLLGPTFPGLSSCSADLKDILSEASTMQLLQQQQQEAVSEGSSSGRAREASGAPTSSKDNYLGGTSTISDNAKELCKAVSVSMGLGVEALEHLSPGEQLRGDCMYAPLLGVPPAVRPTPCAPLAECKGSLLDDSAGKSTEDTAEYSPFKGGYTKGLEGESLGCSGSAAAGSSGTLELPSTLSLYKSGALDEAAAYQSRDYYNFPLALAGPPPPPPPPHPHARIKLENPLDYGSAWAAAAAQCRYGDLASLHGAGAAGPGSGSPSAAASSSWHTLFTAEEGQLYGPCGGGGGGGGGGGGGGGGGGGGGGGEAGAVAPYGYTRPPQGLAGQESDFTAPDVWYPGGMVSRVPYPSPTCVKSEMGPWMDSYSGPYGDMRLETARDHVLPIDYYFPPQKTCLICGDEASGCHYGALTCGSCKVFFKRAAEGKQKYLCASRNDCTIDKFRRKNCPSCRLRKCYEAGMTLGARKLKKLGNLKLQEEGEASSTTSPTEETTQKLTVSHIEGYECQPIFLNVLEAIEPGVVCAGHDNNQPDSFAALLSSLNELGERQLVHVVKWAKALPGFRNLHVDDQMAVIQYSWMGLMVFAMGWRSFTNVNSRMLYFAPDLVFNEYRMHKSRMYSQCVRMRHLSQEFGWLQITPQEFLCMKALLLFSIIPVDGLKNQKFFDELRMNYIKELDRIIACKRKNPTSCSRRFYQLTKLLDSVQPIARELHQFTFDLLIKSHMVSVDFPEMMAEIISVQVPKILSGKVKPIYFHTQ

IC50 (Glucocorticoid receptor [1]) | EC50 (Glucocorticoid receptor [2]) [nM] | IC50 (Glucocorticoid receptor [3]) [nM] | IC50 (Glucocorticoid receptor [4]) [nM] | Log IC50 (Glucocorticoid receptor [5]) | IC50 (Progesterone receptor) [nM] | IC50 (Androgen receptor) [nM] | SMILES
30.2 nM | > 1000 | > 1000 | 309 |  |  |  | Cc1c(S(=O)(=O)NCC(O)(CC2(C)CCCc3ccccc32)C(F)(F)F)cnn1-c1ccccc1 (stereo in doubt; 17D2E2)
158 nM |  |  |  |  |  |  | Cc1c(S(=O)(=O)NCC(O)(CC2(C)CCCc3ccccc32)C(F)(F)F)cnn1-c1ccccc1 (stereo in doubt; 17D1)
9.33 nM | > 1000 | 49 | 933 |  |  |  | Cc1c(C(=O)NCC(O)(CC2(C)CCCc3ccccc32)C(F)(F)F)cnn1-c1ccccc1 (stereo in doubt; 18D1E1)
34.7 nM |  |  |  |  |  |  | Cc1c(S(=O)(=O)NCC(O)(CC2(C)CCCc3ccccc32)C(F)(F)F)cnn1-c1ccccc1 (stereo in doubt; 17D2)
51.3 nM |  |  |  |  |  |  | Cc1c(S(=O)(=O)NCC(O)(CC2(C)CCCc3ccccc32)C(F)(F)F)cnn1-c1ccccc1 (stereo in doubt; 17D2E1)
7.59 nM |  | 83.2 | 603 |  |  |  | Cc1c(C(=O)NCC(O)(CC2(C)CCCc3ccccc32)C(F)(F)F)cnn1-c1ccccc1 (stereo in doubt; 18D1)
5.13 nM | 18.2 | 5.89 |  |  |  |  | CC1(CC(O)(CNC(=O)c2cnn(-c3ccccc3)c2N)C(F)(F)F)CCCc2ccccc21 (stereo in doubt; 19D1E2)

Continued, molecule first:

SMILES | IC50 (Glucocorticoid receptor [1]) | EC50 (Glucocorticoid receptor [2]) [nM] | IC50 (Glucocorticoid receptor [3]) [nM] | IC50 (Glucocorticoid receptor [4]) [nM] | Log IC50 (Glucocorticoid receptor [5]) | IC50 (Progesterone receptor) [nM] | IC50 (Androgen receptor) [nM]
CCC1(CC(O)(CNC(=O)c2cnn(-c3ccc(F)cc3F)c2N)C(F)(F)F)CCCc2ccccc21 (stereo in doubt; 22D1E1) |  | 14.5 | 6.46 | > 1000 | -8.33 |  | 
CCn1nc(C)c(Br)c1C(=O)NCC(O)(CC1(C)CCCc2ccccc21)C(F)(F)F (configuration not stated) | 40.7 nM |  | > 1000 |  |  |  | 
Nc1c(C(=O)NCC(O)(CC2(C3CCCC3)CCCc3ccccc32)C(F)(F)F)cnn1-c1ccc(F)cc1F (stereo in doubt; 23D1E1) | 9.55 nM | 95.5 | 8.51 | 275 |  |  | 
CCC1(CC(O)(CNC(=O)c2cnn(-c3ccc(F)cc3F)c2N)C(F)(F)F)CCCc2ccccc21 (stereo in doubt; 22D1E2) | 4.68 nM | 12.3 | 4.47 |  |  |  | 
CCC1(CC(O)(CNC(=O)c2cnn(-c3ccccc3)c2N)C(F)(F)F)CCCc2ccccc21 (configuration not stated) | 7.41 nM | 5.62 | 1.66 |  |  |  | 
CC1(CC(O)(CNC(=O)c2cnn(-c3ccccc3)c2N)C(F)(F)F)CCCc2ccccc21 (stereo in doubt; 19D1E1) | 5.75 nM | 182 | 17 |  |  |  | 
COc1ccc(F)cc1C(C)(C)C[C@](O)(CNC(=O)c1cnn(-c2ccc(F)cc2)c1N)C(F)(F)F | 6.76 nM and 5.5 nM |  |  | > 1000 |  | > 1000 | > 1000
Nc1c(C(=O)NCC(O)(CC2(c3cc(F)ccc3Cl)CCC2)C(F)(F)F)cnn1-c1ccccc1 (stereo in doubt; 24E2) | 4.79 nM | 17.4 | 13.2 |  |  |  | 
CCC1(CC(O)(CNC(=O)c2cnn(-c3ccc(F)cc3)c2N)C(F)(F)F)CCCc2ccccc21 (stereo in doubt; 21D1E1) | 20 nM | 7.76 | 3.63 |  |  |  | 
CCC1(CC(O)(CNC(=O)c2cnn(-c3ccc(F)cc3)c2N)C(F)(F)F)CCCc2ccccc21 (stereo in doubt; 21D1E2) | 9.77 nM | 10.7 | 3.02 |  |  |  | 
Nc1c(C(=O)NCC(O)(CC2(c3cc(F)ccc3Cl)CCC2)C(F)(F)F)cnn1-c1ccccc1 (stereo in doubt; 24E1) | 4.27 nM | 15.1 | 3.72 |  |  | > 1000 | > 1000
Nc1c(C(=O)NCC(O)(CC2(C3CCCC3)CCCc3ccccc32)C(F)(F)F)cnn1-c1ccc(F)cc1F (stereo in doubt; 23D1E2) | 20.9 nM | 151 | 30.2 |  |  |  | 

From ChEMBL document CHEMBL1149655, “Non-steroidal glucocorticoid agonists: the discovery of aryl pyrazoles as A-ring mimetics” (Bioorg Med Chem Lett, 2007)
